The text below walks through data of ChEMBL document CHEMBL1649363, “Nitropyrrolins A-E, cytotoxic farnesyl-α-nitropyrroles from a marine-derived bacterium within the actinomycete family Streptomycetaceae” (J Nat Prod, 2010).

The subject of test [1] is Staphylococcus aureus. Kind of test: Antibacterial activity against methicillin-resistant Staphylococcus aureus. Format: functional.
Test [2] concerns HCT-116. As to the kind of experiment: Cytotoxicity against human HCT116 cells. Type of test: functional, cell-based.
Setting [3] is: Homo sapiens, HCT-116, read-out: IC50.

The structures appear in SMILES notation. Converted amounts (≈) assume the structure as drawn. Bounds are passed on as bounds.

Consider `CC(C)=CCC/C(C)=C/C/C=C(\C)[C@H](O)Cc1c[nH]c([N+](=O)[O-])c1` [NITROPYRROLIN D], for which the MIC in test [1] is more than 20 µg/mL. In addition, in test [2] (setting [3]), the IC50 came to 5.7 µM.

In the case of `CC(C)=CCC/C(C)=C/CC[C@](C)(O)[C@H](O)Cc1c[nH]c([N+](=O)[O-])c1` [NITROPYRROLIN A], the minimal inhibitory concentration (MIC) in test [1] was more than 20 µg/mL. For the same compound, the IC50 in test [2] (setting [3]) was 31.1 µM.

For the compound `O=[N+]([O-])c1ccc[nH]1`, the MIC in test [1] is more than 20 µg/mL. In addition, the IC50 entry in test [2] (hct-116) is given as “Not Active”.

Consider `O=[N+]([O-])c1cc[nH]c1`, for which the MIC in test [1] is more than 20 µg/mL. In addition, the IC50 result in test [2] (hct-116) is “Not Active”.

`CC(C)=CCC/C(C)=C\CC/C(C)=C\Cc1cc[nH]c1` had an MIC in test [1] of 2.8 µg/mL (≈ 10.3 µM). Besides, the IC50 in test [2] (setting [3]) came to 13.7 µM.

For the compound `CC(C)=CCC/C(C)=C/CC[C@@](C)(Cl)[C@H](O)Cc1c[nH]c([N+](=O)[O-])c1` [NITROPYRROLIN C], the MIC in test [1] is more than 20 µg/mL. Also, in test [2] (hct-116), the IC50 result is on record as “Not Active”.

Compound `CC(C)=CCC/C(C)=C/CC[C@@]1(C)O[C@@H]1Cc1c[nH]c([N+](=O)[O-])c1` [NITROPYRROLIN B] registered an MIC in test [1] of more than 20 µg/mL. Moreover, in test [2] (setting [3]), the IC50 worked out at 31 µM.

Turning to `C/C(=C\CC[C@@](C)(Cl)[C@H](O)Cc1c[nH]c([N+](=O)[O-])c1)CC[C@@H](O)C(C)(C)O` [NITROPYRROLIN E], the MIC in test [1] was more than 20 µg/mL. The IC50 entry in test [2] (hct-116) is on record as “Not Active”.

In test [1], `CC(C)=CCC/C(C)=C\CC/C(C)=C\Cc1c[nH]c([N+](=O)[O-])c1` registered an MIC of more than 20 µg/mL. Moreover, the half-inhibitory concentration (IC50) in test [2] (setting [3]) amounted to 9.2 µM.

Regarding `CC(C)=CCC/C(C)=C\CC/C(C)=C\Cc1ccc[nH]1`, the MIC in test [1] was more than 20 µg/mL. Besides, the IC50 in test [2] (setting [3]) worked out at 24.4 µM.

In general, MIC refers to the least concentration at which growth counts as inhibited. A high value points to a need for much substance. As a reminder, the IC50 is the concentration that gives 50% inhibition.
